Test results: PMC8748874, “Structures of the human peroxisomal fatty acid transporter ABCD1 in a lipid environment” (Communications Biology, 2022)

Key:
Test in all cases: molybdate-based colorimetric ATPase assay
Type in all cases: biochemical
ABCD1 (ALDP) [1] = target: T1, ABCD1 (ALDP) (Homo sapiens, UniProt P33897); settings: 10 mM MgCl2, pH 7.5, 37 °C
T1 construct: full length, codon-optimized synthetic gene; C-terminal eYFP-Rho1D4 tag cut off with 3C protease; HEK293 Flp-In TREX; homodimer; in DDM/CHS, liposomes or MSP1D1 nanodiscs
T1 sequence (P33897 whole entry): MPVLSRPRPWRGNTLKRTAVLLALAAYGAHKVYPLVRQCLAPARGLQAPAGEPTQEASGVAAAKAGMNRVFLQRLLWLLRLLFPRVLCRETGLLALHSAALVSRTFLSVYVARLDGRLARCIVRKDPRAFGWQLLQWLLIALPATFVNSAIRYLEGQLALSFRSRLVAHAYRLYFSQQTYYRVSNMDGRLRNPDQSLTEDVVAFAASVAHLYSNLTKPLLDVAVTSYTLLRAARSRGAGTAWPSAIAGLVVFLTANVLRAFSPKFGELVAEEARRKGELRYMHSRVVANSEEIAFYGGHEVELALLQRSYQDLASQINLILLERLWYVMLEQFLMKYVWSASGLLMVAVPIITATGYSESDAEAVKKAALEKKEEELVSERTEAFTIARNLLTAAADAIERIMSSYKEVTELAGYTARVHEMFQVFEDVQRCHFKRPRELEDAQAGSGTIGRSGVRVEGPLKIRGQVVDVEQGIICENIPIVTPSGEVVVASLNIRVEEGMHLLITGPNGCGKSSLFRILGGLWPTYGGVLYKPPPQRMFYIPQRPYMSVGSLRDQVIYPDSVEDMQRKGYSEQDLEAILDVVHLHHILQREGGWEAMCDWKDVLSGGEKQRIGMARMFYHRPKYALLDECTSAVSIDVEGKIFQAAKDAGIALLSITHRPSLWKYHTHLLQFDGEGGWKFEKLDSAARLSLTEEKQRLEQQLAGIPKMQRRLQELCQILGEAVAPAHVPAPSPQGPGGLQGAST

ABCD1 (ALDP) [2] = target: T1, ABCD1 (ALDP); settings: DDM/CHS detergent; 5 mM ATP, 10 mM MgCl2, pH 7.5, 37 °C
ABCD1 (ALDP) [3] = target: T1, ABCD1 (ALDP); settings: DDM/CHS detergent; 5 mM ATP, 10 mM MgCl2, pH 7.5, 37 °C; remark: listed apart in the source
ABCD1 (ALDP) [4] = target: T1, ABCD1 (ALDP); settings: DDM/CHS detergent; 5 mM ATP, 10 mM MgCl2, pH 7.5, 37 °C; with C24:0-CoA; suggested competition for same site; no stimulation alone

SMILES	inhibition of ATPase activity at 5 mM (ABCD1 (ALDP) [1])	ATPase rate stimulation at 0.1 and 1 mM (ABCD1 (ALDP) [3])	other results
Nc1ncnc2c1ncn2[C@@H]1O[C@H](COP(=O)(O)OP(=O)(O)OP(O)(O)=S)[C@@H](O)[C@H]1O [ATPγS]	sensitive to inhibition by sodium orthovanadate (VO4) or the non-hydrolysable ATP analog ATPγS	–	–
CCCCCCCC/C=C\CCCCCCCC(=O)SCCNC(=O)CCNC(=O)[C@H](O)C(C)(C)COP(=O)(O)OP(=O)(O)OC[C@H]1O[C@@H](n2cnc3c(N)ncnc32)[C@H](O)[C@@H]1OP(=O)(O)O [C18:1-CoA]	–	–	ATPase rate stimulation (ABCD1 (ALDP) [2]): we also observed ATPase rate stimulation by C18:1-CoA
CCCCCCCCCCCCCCCCCCCCCCCC(=O)SCCNC(=O)CCNC(=O)[C@H](O)C(C)(C)COP(=O)(O)OP(=O)(O)OC[C@H]1O[C@@H](n2cnc3c(N)ncnc32)[C@H](O)[C@@H]1OP(=O)(O)O [C24:0-CoA]	–	we observed ATPase rate stimulation for C24:0-CoA and C26:0-CoA	–
CCCCCCCCCCCCCCCCCCCCCCCCCC(=O)SCCNC(=O)CCNC(=O)[C@H](O)C(C)(C)COP(=O)(O)OP(=O)(O)OC[C@H]1O[C@@H](n2cnc3c(N)ncnc32)[C@H](O)[C@@H]1OP(=O)(O)O [C26:0-CoA]	–	we observed ATPase rate stimulation for C24:0-CoA and C26:0-CoA	–
CC(=O)SCCNC(=O)CCNC(=O)[C@H](O)C(C)(C)COP(=O)(O)OP(=O)(O)OC[C@H]1O[C@@H](n2cnc3c(N)ncnc32)[C@H](O)[C@@H]1OP(=O)(O)O [acetyl-CoA]	–	–	decrease of C24:0-CoA stimulated ATPase (ABCD1 (ALDP) [4]): it can partially inhibit ATPase stimulation by C24:0-CoA
[O]=[V]([OH])([OH])[OH] [sodium orthovanadate]	ATP hydrolysis was sensitive to inhibition by sodium orthovanadate (VO4)	–	–
